Target: T1, human GPR119 (Homo sapiens, UniProt Q8TDV5)
T1 construct: expression vector for human GPR119 cDNA (Acc. No. NP_848566); expressed in transfected cells
T1 sequence (Q8TDV5 1-335): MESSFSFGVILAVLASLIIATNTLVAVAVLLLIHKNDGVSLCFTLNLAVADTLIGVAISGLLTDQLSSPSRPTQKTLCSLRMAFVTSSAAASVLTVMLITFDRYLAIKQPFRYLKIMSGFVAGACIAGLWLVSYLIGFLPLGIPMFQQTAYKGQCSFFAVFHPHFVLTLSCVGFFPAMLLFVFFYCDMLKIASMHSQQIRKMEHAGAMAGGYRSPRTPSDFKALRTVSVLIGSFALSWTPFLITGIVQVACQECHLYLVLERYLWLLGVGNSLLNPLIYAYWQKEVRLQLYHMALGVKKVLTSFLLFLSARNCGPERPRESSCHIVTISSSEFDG
Test: AlphaScreen cAMP assay in MIN6 cells stably transfected with human GPR119
Assay type: cell-based
Conditions: Min-6/hGPR119 cells, AlphaScreen cAMP Assay Kit, 45 minutes incubation at room temperature
Protocol: The compounds of formula I according to the invention modulate the activity of the G-protein-coupled receptor GPR119. The effect of the compounds on the activation of GPR119 and on the stimulation of intracellular cAMP concentration is determined using the AlphaScreen cAMP Assay Kit (Cat. No. #6760625R) made by PerkinElmer.
MIN6 cells [Miyazaki J et al. Endocrinology. 1990 July; 127(1):126-32] are stably transfected with an expression vector for human GPR119 cDNA (Acc. No. NP_848566). Min-6/hGPR119 cells are cultured in DMEM, 10% FBS, 50 μM β-mercaptoethanol, 0.3 mg/mL Geniticin, 2 mM GlutaMAX at 37° C. 5% CO2. For the assay, the cells are seeded in Optiplates (white, 384-well, 160 W-barcoded, TC, sterile with lid, Cat. No. #6007688 (Perkin Elmer); 10000 cells/well; 50 μl). The plates covered with lids are then incubated for 24 hours at 37° C./5% CO2. After the medium is aspirated from the wells completely, 10 μl of the test compound are added, the compounds are diluted using stimulating buffer (140 mM NaCl, 3.6 mM KCl, 0.5 mM NaH2PO4, 0.5 mM MgSO4, 1.5 mM CaCl2, 10 mM Hepes, 5 mM NaHCO3; pH 7.4. 0.5 mM IBMX and 0.1% BSA, the final DMSO concentration is 1%). After 45 minutes incubation at room temperature (approx. 20° C.), the cAMP concentrations are determined using the AlphaScreen cAMP Assay Kit (Cat. No. #6760625R from PerkinElmer).

| Structure (SMILES) | EC50 |
| --- | --- |
| COCc1noc(N2CCC(N(C(=O)c3ccc(-c4cnco4)cc3)C3CC3)CC2)n1 [Example 4, N-Cyclopropyl-N-[1-(3-methoxymethyl-[1,2,4]oxadiazol-5-yl)-piperidin-4-yl]-4-oxazol-5-yl-benzamide] | 160 nM |
| O=C(c1ccc(-c2cnco2)cc1)N(C1CC1)C1CCN(c2nc(Cc3ccccc3)no2)CC1 [Example 7, N-[1-(3-Benzyl-[1,2,4]oxadiazol-5-yl)-piperidin-4-yl]-N-cyclopropyl-4-oxazol-5-yl-benzamide] | 69 nM |
| O=C(c1ccc(-c2cnco2)cc1)N(C1CC1)C1CCN(c2nc(-c3ccncc3)no2)CC1 [Example 9, N-Cyclopropyl-4-oxazol-5-yl-N-[1-(3-pyridin-4-yl-[1,2,4]oxadiazol-5-yl)-piperidin-4-yl]-benzamide] | 80 nM |
| O=C(c1ccc(-c2cnco2)cc1)N(C1CC1)C1CCN(c2nc(-c3cccc(Br)c3)no2)CC1 [Example 11, N-{1-[3-(3-Bromo-phenyl)-[1,2,4]oxadiazol-5-yl]-piperidin-4-yl}-N-cyclopropyl-4-oxazol-5-yl-benzamide] | 97 nM |
| CCc1noc(N2CCC(N(C(=O)c3ccc(-c4cnco4)cc3)C3CC3)CC2)n1 [Example 12, N-Cyclopropyl-N-[1-(3-ethyl-[1,2,4]oxadiazol-5-yl)-piperidin-4-yl]-4-oxazol-5-yl-benzamide] | 51 nM |
| O=C(c1ccc(-c2cnco2)cc1)N(C1CC1)C1CCN(c2nc(-c3cccnc3)no2)CC1 [Example 15, N-Cyclopropyl-4-oxazol-5-yl-N-[1-(3-pyridin-3-yl-[1,2,4]oxadiazol-5-yl)-piperidin-4-yl]-benzamide] | 153 nM |
| Cc1nc(-c2noc(N3CCC(N(C(=O)c4ccc(-c5cnco5)cc4)C4CC4)CC3)n2)cs1 [Example 16, N-Cyclopropyl-N-{1-[3-(2-methyl-thiazol-4-yl)-[1,2,4]oxadiazol-5-yl]-piperidin-4-yl}-4-oxazol-5-yl-benzamide] | 206 nM |
| O=C(c1ccc(-c2cnco2)cc1)N(C1CC1)C1CCN(c2nc(-c3ccccn3)no2)CC1 [Example 18, N-Cyclopropyl-4-oxazol-5-yl-N-[1-(3-pyridin-2-yl-[1,2,4]oxadiazol-5-yl)-piperidin-4-yl]-benzamide] | 275 nM |
| O=C(c1ccc(-c2cnco2)cc1)N(C1CC1)C1CCN(c2ncccn2)CC1 [Example 20, N-Cyclopropyl-4-oxazol-5-yl-N-(1-pyrimidin-2-yl-piperidin-4-yl)-benzamide] | 393 nM |
| N#Cc1ccc(N2CCC(N(C(=O)c3ccc(-c4cnco4)cc3)C3CC3)CC2)nc1 [Example 21, N-[1-(5-Cyano-pyridin-2-yl)-piperidin-4-yl]-N-cyclopropyl-4-oxazol-5-yl-benzamide] | 143 nM |
| O=C(c1ccc(-c2cnco2)cc1)N(C1CC1)C1CCN(c2nc3ccccc3o2)CC1 [Example 22, N-(1-Benzooxazol-2-yl-piperidin-4-yl)-N-cyclopropyl-4-oxazol-5-yl-benzamide] | 60 nM |
| O=C(c1ccc(-c2cnco2)cc1)N(C1CC1)C1CCN(c2ncc(-c3ccc(Cl)cc3)cn2)CC1 [Example 24, N-{1-[5-(4-Chloro-phenyl)-pyrimidin-2-yl]-piperidin-4-yl}-N-cyclopropyl-4-oxazol-5-yl-benzamide] | 232 nM |
| COc1cnc(N2CCC(N(C(=O)c3ccc(-c4cnco4)cc3)C3CC3)CC2)nc1 [Example 26, N-Cyclopropyl-N-[1-(5-methoxy-pyrimidin-2-yl)-piperidin-4-yl]-4-oxazol-5-yl-benzamide] | 47 nM |
| COc1ccc(-c2cnc(N3CCC(N(C(=O)c4ccc(-c5cnco5)cc4)C4CC4)CC3)nc2)cc1 [Example 27, N-Cyclopropyl-N-{1-[5-(4-methoxy-phenyl)-pyrimidin-2-yl]-piperidin-4-yl}-4-oxazol-5-yl-benzamide] | 71 nM |
| O=C(c1ccc(-c2cnco2)cc1)N(C1CC1)C1CCN(c2ccccn2)CC1 [Example 28, N-Cyclopropyl-4-oxazol-5-yl-N-(1-pyridin-2-yl-piperidin-4-yl)-benzamide] | 676 nM |
| O=C(c1ccc(-c2cnco2)cc1)N(C1CC1)C1CCN(c2ncc(F)cn2)CC1 [Example 29, N-Cyclopropyl-N-[1-(5-fluoro-pyrimidin-2-yl)-piperidin-4-yl]-4-oxazol-5-yl-benzamide] | 78 nM |

Now those with a lower EC50, led by results:

| EC50 | Structure (SMILES) |
| --- | --- |
| 44 nM | CCCc1cnc(N2CCC(N(C(=O)c3ccc(-c4cnco4)cc3)C3CC3)CC2)nc1 [Example 23, N-Cyclopropyl-4-oxazol-5-yl-N-[1-(5-propyl-pyrimidin-2-yl)-piperidin-4-yl]-benzamide] |
| 38 nM | O=C(c1ccc(-c2cnco2)cc1)N(C1CC1)C1CCN(c2ccc(C(F)(F)F)cn2)CC1 [Example 31, N-Cyclopropyl-4-oxazol-5-yl-N-[1-(5-trifluoromethyl-pyridin-2-yl)-piperidin-4-yl]-benzamide] |
| 36 nM | CCCc1noc(N2CCC(N(C(=O)c3ccc(-c4cnco4)cc3)C3CC3)CC2)n1 [Example 8, N-Cyclopropyl-4-oxazol-5-yl-N-[1-(3-propyl-[1,2,4]oxadiazol-5-yl)-piperidin-4-yl]-benzamide] |
| 32 nM | CCc1cnc(N2CCC(N(C(=O)c3ccc(-c4cnco4)cc3)C3CC3)CC2)nc1 [Example 19, N-Cyclopropyl-N-[1-(5-ethyl-pyrimidin-2-yl)-piperidin-4-yl]-4-oxazol-5-yl-benzamide] |
| 27 nM | O=C(c1ccc(-c2cnco2)cc1)N(C1CC1)C1CCN(c2nc(-c3ccsc3)no2)CC1 [Example 14, N-Cyclopropyl-4-oxazol-5-yl-N-[1-(3-thiophen-3-yl-[1,2,4]oxadiazol-5-yl)-piperidin-4-yl]-benzamide] |
| 26 nM | C=CCc1noc(N2CCC(N(C(=O)c3ccc(-c4cnco4)cc3)C3CC3)CC2)n1 [Example 13, N-[1-(3-Allyl-[1,2,4]oxadiazol-5-yl)-piperidin-4-yl]-N-cyclopropyl-4-oxazol-5-yl-benzamide] |
| 23 nM | O=C(c1ccc(-c2cnco2)cc1)N(C1CC1)C1CCN(c2nc(-c3ccccc3)no2)CC1 [Example 6, N-Cyclopropyl-4-oxazol-5-yl-N-[1-(3-phenyl-[1,2,4]oxadiazol-5-yl)-piperidin-4-yl]-benzamide] |
| 23 nM | O=C(c1ccc(-c2ccncc2)cc1)N(C1CC1)C1CCN(c2nc(-c3ccccc3)no2)CC1 [Example 17, N-Cyclopropyl-N-[1-(3-phenyl-[1,2,4]oxadiazol-5-yl)-piperidin-4-yl]-4-pyridin-4-yl-benzamide] |
| 19 nM | CC(C)(C)c1noc(N2CCC(N(C(=O)c3ccc(-c4cnco4)cc3)C3CC3)CC2)n1 [Example 3, N-[1-(3-tert-Butyl-[1,2,4]oxadiazol-5-yl)-piperidin-4-yl]-N-cyclopropyl-4-oxazol-5-yl-benzamide] |
| 19 nM | O=C(c1ccc(-c2cnco2)cc1)N(C1CC1)C1CCN(c2ncc(Cl)cn2)CC1 [Example 30, N-[1-(5-Chloro-pyrimidin-2-yl)-piperidin-4-yl]-N-cyclopropyl-4-oxazol-5-yl-benzamide] |
| 17 nM | O=C(c1ccc(-c2cnco2)cc1)N(C1CC1)C1CCN(c2ncc(Br)cn2)CC1 [Example 25, N-[1-(5-Bromo-pyrimidin-2-yl)-piperidin-4-yl]-N-cyclopropyl-4-oxazol-5-yl-benzamide] |
| 15 nM | CC(C)c1noc(N2CCC(N(C(=O)c3ccc(-c4cnco4)cc3)C3CC3)CC2)n1 [Example 1, N-Cyclopropyl-N-[1-(3-isopropyl-[1,2,4]oxadiazol-5-yl)-piperidin-4-yl]-4-oxazol-5-yl-benzamide] |
| 15 nM | CC(C)Cc1noc(N2CCC(N(C(=O)c3ccc(-c4cnco4)cc3)C3CC3)CC2)n1 [Example 2, N-Cyclopropyl-N-[1-(3-isobutyl-[1,2,4]oxadiazol-5-yl)-piperidin-4-yl]-4-oxazol-5-yl-benzamide] |
| 14 nM | O=C(c1ccc(-c2cnco2)cc1)N(C1CC1)C1CCN(c2nc(-c3ccc(I)cc3)no2)CC1 [Example 5, N-Cyclopropyl-N-{1-[3-(4-iodo-phenyl)-[1,2,4]oxadiazol-5-yl]-piperidin-4-yl}-4-oxazol-5-yl-benzamide] |
| 13 nM | O=C(c1ccc(-c2cnco2)cc1)N(C1CC1)C1CCN(c2nc(-c3ccc(F)cc3)no2)CC1 [Example 10, N-Cyclopropyl-N-{1-[3-(4-fluoro-phenyl)-[1,2,4]oxadiazol-5-yl]-piperidin-4-yl}-4-oxazol-5-yl-benzamide] |

— patent US8822471B2, “Compounds, pharmaceutical compositions and uses thereof” (Boehringer Ingelheim International GmbH, priority 2011, dated 2014)
